Starred links: 1 amine or outer side, 2 acyl side, 3 side chain; linkers in the order of their positions; H or OH if unused. Positions of bridges follow the written chain, without caps; N, C: chain ends. Non-standard residues stand in square brackets, D forms with d. Residues, ends and D or L forms follow the SMILES beside them. Groups on a side chain read outwards from the residue. *: point of attachment. γGlu = O=C(O)[C@H](CCC(=O)[*:2])N[*:1]; HOOC(CH2)6CO = O=C(O)CCCCCCC(=O)*; Palmitoyl = CCCCCCCCCCCCCCCC(=O)*; AEEA = NCCOCCOCC(=O)O
Test: in vivo
Design: species or system Sprague-Dawley rats
Settings: rat, iv, 0.033 mg/kg
Procedure: Peptides were dissolved in sterile saline and administered as a 1-hour intravenous infusion to non-fasted male Sprague-Dawley rats (n=3 per group) via femoral vein cannula at a final dose of 0.033 mg/kg. […] Blood samples (approximately 250 μL) were collected for pharmacokinetic analysis via a jugular vein cannula at 0.25, 0.5, 0.75, 1, 1.17, 1.33, 1.5, 2, 4, 6, 8, 24, 30 and 48 hr post-start of infusion into microtainer tubes containing K2EDTA as anticoagulant and 25 μL of a protease inhibitor cocktail. Plasma was prepared by centrifugation and stored at −80° C. until analysis. The results of this analysis are shown in Table 9 and few exemplars in FIGS. 3a-3b. […]
A 60 μL aliquot of each plasma sample was placed into to a 96-well plate. To each well was added 6 μL of 0.5% Tween-20. Plates were then vortexed mixed for 10 minutes at 1200 rpm before 180 μL of 0.1% TFA in 2:1 ethanol:acetonitrile containing an appropriate internal standard was added to each well. Plates were vortex mixed for 5 min at 1300 rpm, and then centrifuged for 10 min at 2844×g. Supernatants (180 μL) were placed into a clean 96-well plate and evaporated under a nitrogen stream at 45° C. Residues were reconstituted in 80 μL of 20% acetonitrile (aq) containing 0.1% formic acid.
A […] aliquot of each plasma sample was diluted with […] of 10 mM ammonium acetate (pH 6.8) containing an appropriate internal standard and loaded onto an Oasis WCX microElution plate (Waters Corporation, Milford, MA) that had been pre-conditioned with […] of methanol and […] of deionized water. Samples were washed with […] of 5% ammonium hydroxide (aq) followed by […] of 20% acetonitrile in water. The analyte was eluted with […] of 5% formic acid in 75:25 acetonitrile:water. The eluent was dried under a nitrogen stream. Residues were reconstituted in 80 μL of 20% acetonitrile (aq) containing 0.1% formic acid.
All calibration standards were prepared in control rat plasma containing K2EDTA and protease inhibitor cocktail.
Samples and standards were analyzed by TurbolonSpray™ UPLC-MS/MS using a system consisting of a CTC HTS PAL auto-injector (Leap, Carrboro, NC), an Agilent Infinity 1290 system with column oven (Palo Alto, CA), a Valco switching valve (Houston, TX), and either an AB Sciex API 5600 TripleTOF™ or Sciex API 4000QTrap mass spectrometer (Framingham, MA). Samples were injected onto a 2.1×50 mm reverse phase C18 analytical column, typically a Waters CORTECS UPLC C18+, 1.6 μm (Waters Corporation, Milford, MA) or similar. […] Initial conditions consisted of 90% A and 10% B. The organic component was increased to 95% B over a period of 3-4 minutes, depending on the peptide. Typical flow rates were 600 μL/min. The column temperature was held constant at 40 or 50° C. Peptides were quantified by monitoring one or more product ions produced from a multiply charged parent ion.

SMILES | Vd [L/kg] | clearance [mL/min/kg] | half-life [min]
CCCCCCCCCCCCCCCC(=O)N[C@@H](CCC(=O)NCCCC[C@H](NC(=O)[C@H](CC(C)C)NC(=O)[C@H](CCC(=O)O)NC(=O)[C@H](CC(N)=O)NC(=O)[C@H](C)NC(=O)[C@H](CC(C)C)NC(=O)[C@H](CCCNC(=N)N)NC(=O)[C@H](CCC(N)=O)NC(=O)[C@@H](NC(=O)[C@H](C)NC(=O)[C@@H]1CSSC[C@H](NC(=O)[C@@H](N)CO)C(=O)N[C@@H](CC(N)=O)C(=O)N[C@@H]([C@@H](C)O)C(=O)N[C@@H](CO)C(=O)N[C@@H]([C@@H](C)O)C(=O)N1)[C@@H](C)O)C(=O)N[C@@H](CCCCN)C(=O)N[C@@H](CO)C(=O)N[C@@H](CO)C(=O)N[C@@H](CC(N)=O)C(=O)N[C@@H](CC(N)=O)C(=O)N[C@@H](Cc1ccccc1)C(=O)NCC(=O)N1CCC[C@H]1C(=O)N[C@H](C(=O)N[C@@H](CC(C)C)C(=O)N1CCC[C@H]1C(=O)N1CCC[C@H]1C(=O)N[C@H](C(=O)N[C@@H](CCCCN)C(=O)N[C@H](C(=O)NCC(=O)N[C@@H](CO)C(=O)N[C@@H](CCC(=O)O)C(=O)N[C@H](C(=O)N[C@@H](Cc1ccc(O)cc1)C(N)=O)[C@@H](C)O)C(C)C)[C@@H](C)O)[C@@H](C)CC)C(=O)O [Compound A10] (H-SCNTSTCATQRLANELK([γGlu-Palmitoyl])KSSNNFGPILPPTKVGSETY-NH2; disulfide 2-7) | 0.245 | 3.72 | 57.9
CCCCCCCCCCCCCCCC(=O)N[C@@H](CCC(=O)NCCOCCOCC(=O)NCCOCCOCC(=O)NCCCC[C@@H](NC(=O)[C@H](CCC(=O)O)NC(=O)[C@H](CC(N)=O)NC(=O)[C@H](C)NC(=O)[C@H](CC(C)C)NC(=O)[C@H](CCCNC(=N)N)NC(=O)[C@H](CCC(N)=O)NC(=O)[C@@H](NC(=O)[C@H](C)NC(=O)[C@@H]1CSSC[C@H](NC(=O)[C@@H](N)CO)C(=O)N[C@@H](CC(N)=O)C(=O)N[C@@H]([C@@H](C)O)C(=O)N[C@@H](CO)C(=O)N[C@@H]([C@@H](C)O)C(=O)N1)[C@@H](C)O)C(=O)N[C@@H](Cc1c[nH]cn1)C(=O)N[C@@H](CCCCN)C(=O)N[C@@H](CO)C(=O)N[C@@H](CO)C(=O)N[C@@H](CC(N)=O)C(=O)N[C@@H](CC(N)=O)C(=O)N[C@@H](Cc1ccccc1)C(=O)NCC(=O)N1CCC[C@H]1C(=O)N[C@H](C(=O)N[C@@H](CC(C)C)C(=O)N1CCC[C@H]1C(=O)N1CCC[C@H]1C(=O)N[C@H](C(=O)N[C@@H](CCCCN)C(=O)N[C@H](C(=O)NCC(=O)N[C@@H](CO)C(=O)N[C@@H](CCC(=O)O)C(=O)N[C@H](C(=O)N[C@@H](Cc1ccc(O)cc1)C(N)=O)[C@@H](C)O)C(C)C)[C@@H](C)O)[C@@H](C)CC)C(=O)O [Compound A12] (H-SCNTSTCATQRLANE[dK]([AEEA-AEEA-γGlu-Palmitoyl])HKSSNNFGPILPPTKVGSETY-NH2; disulfide 2-7; N-terminus assumed) | 0.252 | 1.55 | 148
CCCCCCCCCCCCCCCC(=O)N[C@@H](CCC(=O)N[C@@H](CCC(=O)N[C@@H](CCC(=O)N[C@@H](CCC(=O)N[C@@H](CCC(=O)NCCCC[C@H](NC(=O)[C@H](CCC(=O)O)NC(=O)[C@H](CC(N)=O)NC(=O)[C@H](C)NC(=O)[C@H](CC(C)C)NC(=O)[C@H](CCCNC(=N)N)NC(=O)[C@H](CCC(N)=O)NC(=O)[C@@H](NC(=O)[C@H](C)NC(=O)[C@@H]1CSSC[C@H](NC(=O)[C@@H](N)CO)C(=O)N[C@@H](CC(N)=O)C(=O)N[C@@H]([C@@H](C)O)C(=O)N[C@@H](CO)C(=O)N[C@@H]([C@@H](C)O)C(=O)N1)[C@@H](C)O)C(=O)N[C@@H](Cc1c[nH]cn1)C(=O)N[C@@H](CCCCN)C(=O)N[C@@H](CO)C(=O)N[C@@H](CO)C(=O)N[C@@H](CC(N)=O)C(=O)N[C@@H](CC(N)=O)C(=O)N[C@@H](Cc1ccccc1)C(=O)NCC(=O)N1CCC[C@H]1C(=O)N[C@H](C(=O)N[C@@H](CC(C)C)C(=O)N1CCC[C@H]1C(=O)N1CCC[C@H]1C(=O)N[C@H](C(=O)N[C@@H](CCCCN)C(=O)N[C@H](C(=O)NCC(=O)N[C@@H](CO)C(=O)N[C@@H](CCC(=O)O)C(=O)N[C@H](C(=O)N[C@@H](Cc1ccc(O)cc1)C(N)=O)[C@@H](C)O)C(C)C)[C@@H](C)O)[C@@H](C)CC)C(=O)O)C(=O)O)C(=O)O)C(=O)O)C(=O)O [Compound A14] (H-SCNTSTCATQRLANEK([γGlu-γGlu-γGlu-γGlu-γGlu-Palmitoyl])HKSSNNFGPILPPTKVGSETY-NH2; disulfide 2-7) | 0.163 | 0.183 | 678
CC[C@H](C)[C@H](NC(=O)[C@@H]1CCCN1C(=O)CNC(=O)[C@H](Cc1ccccc1)NC(=O)[C@H](CC(N)=O)NC(=O)[C@H](CC(N)=O)NC(=O)[C@H](CO)NC(=O)[C@H](CO)NC(=O)[C@H](CCCCN)NC(=O)[C@H](Cc1c[nH]cn1)NC(=O)[C@H](CC(C)C)NC(=O)[C@H](CCCCNC(=O)CCCCCCC(=O)O)NC(=O)[C@H](CC(N)=O)NC(=O)[C@H](C)NC(=O)[C@H](CC(C)C)NC(=O)[C@H](CCCNC(=N)N)NC(=O)[C@H](CCC(N)=O)NC(=O)[C@@H](NC(=O)[C@H](C)NC(=O)[C@@H]1CSSC[C@H](NC(=O)[C@@H](N)CO)C(=O)N[C@@H](CC(N)=O)C(=O)N[C@@H]([C@@H](C)O)C(=O)N[C@@H](CO)C(=O)N[C@@H]([C@@H](C)O)C(=O)N1)[C@@H](C)O)C(=O)N[C@@H](CC(C)C)C(=O)N1CCC[C@H]1C(=O)N1CCC[C@H]1C(=O)N[C@H](C(=O)N[C@@H](CCCCN)C(=O)N[C@H](C(=O)NCC(=O)N[C@@H](CO)C(=O)N[C@@H](CCC(=O)O)C(=O)N[C@H](C(=O)N[C@@H](Cc1ccc(O)cc1)C(N)=O)[C@@H](C)O)C(C)C)[C@@H](C)O [Compound A18] (H-SCNTSTCATQRLANK(HOOC(CH2)6CO)LHKSSNNFGPILPPTKVGSETY-NH2; disulfide 2-7) | 0.805 | 19.4 | 30.5
CCCCCCCCCCCCCCCC(=O)N[C@@H](CCC(=O)N[C@@H](CCC(=O)N[C@@H](CCC(=O)NCCOCCOCC(=O)NCCOCCOCC(=O)N[C@@H](CCC(=O)NCCCC[C@H](NC(=O)[C@H](CCC(=O)O)NC(=O)[C@H](CC(N)=O)NC(=O)[C@H](C)NC(=O)[C@H](CC(C)C)NC(=O)[C@H](CCCNC(=N)N)NC(=O)[C@H](CCC(N)=O)NC(=O)[C@@H](NC(=O)[C@H](C)NC(=O)[C@@H]1CSSC[C@H](NC(=O)[C@@H](N)CO)C(=O)N[C@@H](CC(N)=O)C(=O)N[C@@H]([C@@H](C)O)C(=O)N[C@@H](CO)C(=O)N[C@@H]([C@@H](C)O)C(=O)N1)[C@@H](C)O)C(=O)N[C@@H](Cc1c[nH]cn1)C(=O)N[C@@H](CCCCN)C(=O)N[C@@H](CO)C(=O)N[C@@H](CO)C(=O)N[C@@H](CC(N)=O)C(=O)N[C@@H](CC(N)=O)C(=O)N[C@@H](Cc1ccccc1)C(=O)NCC(=O)N1CCC[C@H]1C(=O)N[C@H](C(=O)N[C@@H](CC(C)C)C(=O)N1CCC[C@H]1C(=O)N1CCC[C@H]1C(=O)N[C@H](C(=O)N[C@@H](CCCCN)C(=O)N[C@H](C(=O)NCC(=O)N[C@@H](CO)C(=O)N[C@@H](CCC(=O)O)C(=O)N[C@H](C(=O)N[C@@H](Cc1ccc(O)cc1)C(N)=O)[C@@H](C)O)C(C)C)[C@@H](C)O)[C@@H](C)CC)C(=O)O)C(=O)O)C(=O)O)C(=O)O [Compound A19] (H-SCNTSTCATQRLANEK([γGlu-AEEA-AEEA-γGlu-γGlu-γGlu-Palmitoyl])HKSSNNFGPILPPTKVGSETY-NH2; disulfide 2-7; N-terminus assumed) | 0.136 | 0.15 | 690
